Results on 22 molecules are retold here after patent publication US20140256756A1, “PIPERIDINYL-SUBSTITUTED LACTAMS AS GPR119 MODULATORS” (Array BioPharma Inc., priority 2011, published 2014).

The test concerns modified version of the GPR119 receptor (94% identity to human receptor). Kind of test: cAMP production assay (LANCE cAMP kit, TR-FRET) in HEK-293 cells. The note with it: for cAMP production in HEK-293 cells: HEK-293 cells stably expressing modified GPR119, test compounds 0.2 nM to 10 μM, one-hour incubation; for Fold over baseline: increase in cAMP relative to basal levels, agonist activity if 1.5-fold or greater. It counts as cell-based. How it is done: The assay utilized HEK-293 cells that stably express a modified version of the GPR119 receptor (94% identity to human receptor), under the control of a CMV promoter containing a tet-on element for tetracycline-inducible expression. GPR119 agonist-induced cyclic AMP (cAMP) production was measured in this cell line using the LANCE cAMP kit (Perkin Elmer, Waltham, Mass.). To generate a working stock of cells for the assay, cells were treated overnight with 1 μg/mL doxycycline at 37° C. in the presence of 5% CO2 to induce receptor expression. Cells were then harvested by enzymatic dissociation with 0.05% trypsin, resuspended in freezing medium (DMEM growth medium with 10% each of fetal bovine serum and DMSO), aliquoted and frozen at −80° C. On the day of the assay, frozen cells were thawed, washed 1× in PBS and resuspended in Hank's buffered salt solution (HBSS) containing 5 mM HEPES, 0.1% BSA and Alexa Fluor 647-conjugated anti-cAMP antibody (diluted 1:100). The cell suspension was then transferred to a Proxiplate Plus white 384-well assay plate (Perkin-Elmer) at 2000 cells/well. Test compounds at final concentrations ranging from 0.2 nM to 10 μM were added to the assay plate, followed by a one-hour incubation at ambient temperature (volume=10 μL/well). DMSO concentration was held constant at 0.5%. After incubation with test compounds, 10 μL, of a detergent buffer containing a biotinylated cAMP/Europium-conjugated streptavidin complex (Europium-labeled cAMP tracer) were added to each well on the assay plate, followed by a 2-hour incubation at ambient temperature. During this incubation cAMP released from lysed cells competes with the Europium-labeled cAMP tracer for binding to the Alexa Fluor 647-conjugated antibody. […] Cellular cAMP levels were then determined by interpolation of raw signal data using a cAMP standard curve. Compounds were determined to have agonist activity if they stimulated a 1.5-fold or greater increase in cAMP relative to basal levels.
(Cyclic AMP is a second messenger, typically raised through Gs and lowered through Gi signalling.)

Turning to `CSc1ccc(OC2CCN(C3CCN(c4nc(C(C)C)ns4)CC3)C2=O)cc1` (centres unmarked) [Example 32, 1-(1-(3-Isopropyl-1,2,4-thiadiazol-5-yl)piperidin-4-yl)-3-(4-(methylthio)phenoxy)pyrrolidin-2-one], the “cAMP production in HEK-293 cells” value worked out at 17.8 nmol and the Fold over baseline is 2.7.

Regarding `CC(C)(C)c1nsc(N2CCC(N3CC[C@H](Nc4ccc(S(C)(=O)=O)cc4F)C3=O)CC2)n1` [Example 37, (S)-1-(1-(3-tert-butyl-1,2,4-thiadiazol-5-yl)piperidin-4-yl)-3-(2-fluoro-4-(methylsulfonyl)phenyl-amino)pyrrolidin-2-one], the “cAMP production in HEK-293 cells” value amounted to 20.9 nmol and the Fold over baseline was 3.2.

For `CC(C)c1nsc(N2CCC(N3CC[C@H](Nc4ccc(S(C)(=O)=O)cc4C#N)C3=O)CC2)n1` [Example 10, (S)-2-(1-(1-(3-isopropyl-1,2,4-thiadiazol-5-yl)piperidin-4-yl)-2-oxopyrrolidin-3-ylamino)-5-(methylsulfonyl)benzonitrile], the “cAMP production in HEK-293 cells” value stood at 11.3 nmol and the Fold over baseline worked out at 2.3.

On to `CS(=O)(=O)c1cc(F)c(N[C@H]2CCN(C3CCN(c4nc(C(F)(F)F)ns4)CC3)C2=O)c(F)c1` [Example 88, (S)-3-(2,6-difluoro-4-(methylsulfonyl)phenylamino)-1-(1-(3-(trifluoromethyl)-1,2,4-thiadiazol-5-yl)piperidin-4-yl)pyrrolidin-2-one], for which the “cAMP production in HEK-293 cells” value was 11.8 nmol and the Fold over baseline came to 3.0.

Regarding `CCS(=O)(=O)c1ccc(N[C@H]2CCN(C3CCN(c4nc(C(C)C)ns4)CC3)C2=O)c(F)c1` [Example 3, (S)-3-(4-(ethylsulfonyl)-2-fluorophenylamino)-1-(1-(3-isopropyl-1,2,4-thiadiazol-5-yl)piperidin-4-yl)pyrrolidin-2-one], the “cAMP production in HEK-293 cells” value is 25.3 nmol and the Fold over baseline came out at 5.4.

`CC(C)c1nsc(N2CCC(N3CC[C@H](Nc4cc(F)c(S(C)(=O)=O)cc4F)C3=O)CC2)n1` [Example 5, (S)-3-(2,5-difluoro-4-(methylsulfonyl)phenylamino)-1-(1-(3-isopropyl-1,2,4-thiadiazol-5-yl)piperidin-4-yl)pyrrolidin-2-one]: the “cAMP production in HEK-293 cells” value worked out at 19.2 nmol and the Fold over baseline was determined as 2.7.

Take `CC(C)c1nsc(N2CCC(N3CC[C@H](Oc4ccc(S(C)(=O)=O)nc4)C3=O)CC2)n1` [Example 94, (S)-1-(1-(3-isopropyl-1,2,4-thiadiazol-5-yl)piperidin-4-yl)-3-((6-(methylsulfonyl)pyridin-3-yl)oxy)pyrrolidin-2-one]: the “cAMP production in HEK-293 cells” value is 28.1 nmol and the Fold over baseline was determined as 4.0.

With `CC(C)c1nsc(N2CCC(N3CC[C@H](Nc4ccc(S(C)(=O)=O)cc4F)C3=O)CC2)n1` [Example 1, (S)-3-(2-fluoro-4-(methylsulfonyl)phenylamino)-1-(1-(3-isopropyl-1,2,4-thiadiazol-5-yl)piperidin-4-yl)pyrrolidin-2-one], the “cAMP production in HEK-293 cells” value is 21.6 nmol and the Fold over baseline was determined as 3.3.

For the molecule `CS(=O)(=O)c1ccc(N[C@H]2CCN(C3CCN(c4nc(C5CC5)ns4)CC3)C2=O)c(F)c1` [Example 23, (S)-1-(1-(3-cyclopropyl-1,2,4-thiadiazol-5-yl)piperidin-4-yl)-3-(2-fluoro-4-(methyl-sulfonyl)phenylamino) pyrrolidin-2-one], the “cAMP production in HEK-293 cells” value turned out to be 11.9 nmol and the Fold over baseline was 2.9.

Turning to `CC(C)c1nsc(N2CCC(N3CC[C@H](Nc4ncc(S(C)(=O)=O)cn4)C3=O)CC2)n1` [Example 14, (S)-1-(1-(3-isopropyl-1,2,4-thiadiazol-5-yl)piperidin-4-yl)-3-(5-(methylsulfonyl)pyrimidin-2-ylamino)pyrrolidin-2-one], the “cAMP production in HEK-293 cells” value was 17.5 nmol and the Fold over baseline stood at 2.8.

On to `CC(C)c1nsc(N2CCC(N3CC[C@H](Nc4cc(Cl)c(S(C)(=O)=O)cc4F)C3=O)CC2)n1` [Example 9, (S)-3-(5-chloro-2-fluoro-4-(methylsulfonyl)phenylamino)-1-(1-(3-isopropyl-1,2,4-thiadiazol-5-yl)piperidin-4-yl)pyrrolidin-2-one], for which the “cAMP production in HEK-293 cells” value came out at 16.0 nmol and the Fold over baseline is listed as 4.0.

For `CC1(c2nsc(N3CCC(N4CC[C@H](Oc5ccc(S(C)(=O)=O)cc5F)C4=O)CC3)n2)CCOCC1` [Example 60, (S)-3-(2-fluoro-4-(methylsulfonyl)phenoxy)-1-(1-(3-(4-methyltetrahydro-2H-pyran-4-yl)-1,2,4-thiadiazol-5-yl)piperidin-4-yl)pyrrolidin-2-one], the “cAMP production in HEK-293 cells” value amounted to 13.2 nmol and the Fold over baseline is on record as 4.5.

Regarding `Cc1cc(S(C)(=O)=O)ccc1NC1CCN(C2CCN(c3nc(C(C)C)ns3)CC2)C1=O` (centres unmarked) [Example 21, 1-(1-(3-isopropyl-1,2,4-thiadiazol-5-yl)piperidin-4-yl)-3-(2-methyl-4-(methyl-sulfonyl)phenylamino) pyrrolidin-2-one], the “cAMP production in HEK-293 cells” value stood at 13.0 nmol and the Fold over baseline was 3.3.

For `Cc1nnc(-c2ccc(O[C@H]3CCN(C4CCN(c5nc(C(C)C)ns5)CC4)C3=O)c(F)c2)o1` [Example 43, (S)-3-(2-fluoro-4-(5-methyl-1,3,4-oxadiazol-2-yl)phenoxy)-1-(1-(3-isopropyl-1,2,4-thiadiazol-5-yl)piperidin-4-yl)pyrrolidin-2-one], the “cAMP production in HEK-293 cells” value was 29.4 nmol and the Fold over baseline is given as 7.4.

Consider `CC(C)c1nsc(N2CCC(N3CC[C@@H](Nc4ccc(S(C)(=O)=O)cc4F)C3=O)CC2)n1` [Example 2, (R)-3-(2-fluoro-4-(methylsulfonyl)phenylamino)-1-(1-(3-isopropyl-1,2,4-thiadiazol-5-yl)piperidin-4-yl)pyrrolidin-2-one], for which the “cAMP production in HEK-293 cells” value came to 21.9 nmol and the Fold over baseline was 3.1.

Regarding `CC(C)c1nsc(N2CCC(N3CCC(Oc4ccc(S(=O)(=O)c5ccccc5)cc4F)C3=O)CC2)n1` (centres unmarked) [Example 62, 3-(2-Fluoro-4-(phenylsulfonyl)phenoxy)-1-(1-(3-isopropyl-1,2,4-thiadiazol-5-yl)piperidin-4-yl)pyrrolidin-2-one], the “cAMP production in HEK-293 cells” value was 17.4 nmol and the Fold over baseline was found to be 2.7.

As to `Cc1cc(N[C@H]2CCN(C3CCN(c4nc(C(C)C)ns4)CC3)C2=O)c(F)cc1S(C)(=O)=O` [Example 18, (S)-3-(2-fluoro-5-methyl-4-(methylsulfonyl)phenylamino)-1-(1-(3-isopropyl-1,2,4-thiadiazol-5-yl)piperidin-4-yl)pyrrolidin-2-one], the “cAMP production in HEK-293 cells” value came out at 20.1 nmol and the Fold over baseline is on record as 3.4.

Regarding `CC(C)c1nsc(N2CCC(N3CCC(Oc4ccc(Br)cc4F)C3=O)CC2)n1` (centres unmarked) [Example 33, 3-(4-bromo-2-fluorophenoxy)-1-(1-(3-isopropyl-1,2,4-thiadiazol-5-yl)piperidin-4-yl)pyrrolidin-2-one], the “cAMP production in HEK-293 cells” value stood at 16.9 nmol and the Fold over baseline turned out to be 2.7.

Consider `CC(C)c1nsc(N2CCC(N3CC[C@H](Oc4ccc(S(C)(=O)=O)cc4F)C3=O)CC2)n1` [Example 50, (S)-3-(2-fluoro-4-(methylsulfonyl)phenoxy)-1-(1-(3-isopropyl-1,2,4-thiadiazol-5-yl)piperidin-4-yl)pyrrolidin-2-one], for which the “cAMP production in HEK-293 cells” value is 15.1 nmol and the Fold over baseline is listed as 5.6.

With `Cn1cc(-c2nsc(N3CCC(N4CC[C@H](Oc5ccc(S(C)(=O)=O)cc5F)C4=O)CC3)n2)cn1` [Example 73, (S)-3-(2-fluoro-4-(methylsulfonyl)phenoxy)-1-(1-(3-(1-methyl-1H-pyrazol-4-yl)-1,2,4-thiadiazol-5-yl)piperidin-4-yl)pyrrolidin-2-one], the “cAMP production in HEK-293 cells” value was found to be 6.2 nmol and the Fold over baseline was 2.2.

As to `CS(=O)(=O)c1cc(F)c(O[C@H]2CCN(C3CCN(c4nc(C(F)(F)F)ns4)CC3)C2=O)cc1F` [Example 91, (S)-3-(2,5-difluoro-4-(methylsulfonyl)phenoxy)-1-(1-(3-(trifluoromethyl)-1,2,4-thiadiazol-5-yl)piperidin-4-yl)pyrrolidin-2-one], the “cAMP production in HEK-293 cells” value turned out to be 25.6 nmol and the Fold over baseline amounted to 5.4.

As to `CC(C)c1nsc(N2CCC(N3CCC(Oc4ccc(C(=O)N(C)CCO)cc4F)C3=O)CC2)n1` (centres unmarked) [Example 79, 3-fluoro-N-(2-hydroxyethyl)-4-(1-(1-(3 isopropyl-1,2,4-thiadiazol-5-yl)piperidin-4-yl)-2-oxopyrrolidin-3-yloxy)-N-methylbenzamide], the “cAMP production in HEK-293 cells” value was 19.0 nmol and the Fold over baseline worked out at 3.2.
